The first assay has as its target Ribosomal protein S6 kinase alpha-1 (Homo sapiens) (UniProt Q15418). Nature of the assay: Inhibition of human RSK1 assessed as residual activity at 1 uM relative to control.
Chain of Rho-associated protein kinase 1 (Homo sapiens) (Q13464 2-1354 limits assumed): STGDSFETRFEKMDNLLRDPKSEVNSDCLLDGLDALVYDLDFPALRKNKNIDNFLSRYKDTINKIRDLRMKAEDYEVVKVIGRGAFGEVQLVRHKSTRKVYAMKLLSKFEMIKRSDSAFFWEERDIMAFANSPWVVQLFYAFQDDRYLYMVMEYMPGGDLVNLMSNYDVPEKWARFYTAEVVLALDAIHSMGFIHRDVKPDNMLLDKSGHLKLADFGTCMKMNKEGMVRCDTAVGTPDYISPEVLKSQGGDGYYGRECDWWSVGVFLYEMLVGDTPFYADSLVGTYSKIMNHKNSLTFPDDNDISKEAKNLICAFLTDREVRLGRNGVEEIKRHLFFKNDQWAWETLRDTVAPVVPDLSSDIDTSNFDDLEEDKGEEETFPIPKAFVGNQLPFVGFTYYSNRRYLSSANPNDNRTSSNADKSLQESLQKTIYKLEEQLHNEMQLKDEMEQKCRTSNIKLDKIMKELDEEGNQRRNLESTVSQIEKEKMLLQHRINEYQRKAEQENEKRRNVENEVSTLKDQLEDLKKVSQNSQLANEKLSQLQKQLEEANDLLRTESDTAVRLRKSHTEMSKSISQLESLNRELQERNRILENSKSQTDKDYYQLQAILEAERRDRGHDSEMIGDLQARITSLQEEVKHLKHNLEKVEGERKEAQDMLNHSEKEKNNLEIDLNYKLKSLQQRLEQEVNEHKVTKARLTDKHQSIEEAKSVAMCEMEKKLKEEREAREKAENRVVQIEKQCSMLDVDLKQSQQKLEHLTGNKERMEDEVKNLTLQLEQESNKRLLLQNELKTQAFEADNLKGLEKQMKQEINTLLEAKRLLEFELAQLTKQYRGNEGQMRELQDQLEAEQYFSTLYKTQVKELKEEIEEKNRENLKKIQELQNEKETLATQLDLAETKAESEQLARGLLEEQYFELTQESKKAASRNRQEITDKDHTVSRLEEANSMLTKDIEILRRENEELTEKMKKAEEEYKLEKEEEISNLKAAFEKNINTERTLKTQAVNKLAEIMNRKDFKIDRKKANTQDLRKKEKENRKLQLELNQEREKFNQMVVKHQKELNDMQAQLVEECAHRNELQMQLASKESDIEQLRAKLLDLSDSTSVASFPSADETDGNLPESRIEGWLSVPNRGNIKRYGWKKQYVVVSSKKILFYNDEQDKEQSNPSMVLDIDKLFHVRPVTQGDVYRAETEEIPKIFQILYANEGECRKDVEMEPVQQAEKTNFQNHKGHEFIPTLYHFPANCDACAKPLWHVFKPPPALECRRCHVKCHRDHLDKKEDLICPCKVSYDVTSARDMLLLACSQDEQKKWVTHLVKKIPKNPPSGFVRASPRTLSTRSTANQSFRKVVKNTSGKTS
Chain of Tyrosine-protein kinase Fyn (Homo sapiens) (P06241 2-537 limits assumed): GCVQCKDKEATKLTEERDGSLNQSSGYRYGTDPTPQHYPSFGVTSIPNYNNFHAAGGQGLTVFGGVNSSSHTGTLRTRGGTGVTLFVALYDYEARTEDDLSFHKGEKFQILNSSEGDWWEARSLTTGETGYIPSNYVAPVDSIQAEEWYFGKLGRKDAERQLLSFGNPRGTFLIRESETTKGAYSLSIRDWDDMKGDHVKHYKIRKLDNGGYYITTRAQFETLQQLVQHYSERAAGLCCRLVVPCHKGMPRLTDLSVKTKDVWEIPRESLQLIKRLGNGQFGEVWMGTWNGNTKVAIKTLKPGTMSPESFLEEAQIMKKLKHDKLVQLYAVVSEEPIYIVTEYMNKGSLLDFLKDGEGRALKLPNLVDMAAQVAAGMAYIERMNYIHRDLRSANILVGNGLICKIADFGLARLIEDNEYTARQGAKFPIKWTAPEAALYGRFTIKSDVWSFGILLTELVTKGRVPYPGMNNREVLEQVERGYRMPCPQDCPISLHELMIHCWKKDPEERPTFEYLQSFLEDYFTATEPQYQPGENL
Chain of Ribosomal protein S6 kinase alpha-1 (Homo sapiens) (Q15418 whole entry): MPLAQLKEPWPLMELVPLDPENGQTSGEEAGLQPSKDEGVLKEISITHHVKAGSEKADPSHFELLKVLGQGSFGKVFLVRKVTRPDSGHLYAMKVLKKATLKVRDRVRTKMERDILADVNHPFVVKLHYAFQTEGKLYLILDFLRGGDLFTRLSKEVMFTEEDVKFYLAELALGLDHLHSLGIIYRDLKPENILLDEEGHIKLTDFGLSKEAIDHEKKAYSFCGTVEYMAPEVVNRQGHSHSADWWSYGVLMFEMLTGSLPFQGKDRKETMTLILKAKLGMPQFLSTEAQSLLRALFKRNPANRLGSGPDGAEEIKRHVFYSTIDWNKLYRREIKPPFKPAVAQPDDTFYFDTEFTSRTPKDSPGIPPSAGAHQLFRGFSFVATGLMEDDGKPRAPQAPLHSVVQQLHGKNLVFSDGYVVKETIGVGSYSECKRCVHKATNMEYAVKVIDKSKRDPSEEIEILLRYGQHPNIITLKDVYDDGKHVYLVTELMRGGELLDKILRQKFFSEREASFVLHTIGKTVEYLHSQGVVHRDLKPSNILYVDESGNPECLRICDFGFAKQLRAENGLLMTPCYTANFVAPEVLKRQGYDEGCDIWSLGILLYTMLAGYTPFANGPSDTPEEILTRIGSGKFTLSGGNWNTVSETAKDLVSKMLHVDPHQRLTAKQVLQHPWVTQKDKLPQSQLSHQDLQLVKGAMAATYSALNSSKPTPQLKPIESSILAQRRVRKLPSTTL
As for `COc1ccc(-c2nc3cc(-c4csc(C(=O)NCCC(C)C)c4)cnc3[nH]2)cc1`, the Activity amounted to 76%.

On to `COc1ccc(-c2nc3cc(-c4csc(C(=O)NCC(C)(C)C)c4)cnc3[nH]2)cc1`, for which the Activity worked out at 73%.

Take `COc1ccc(-c2nc3cc(-c4csc(C(=O)NCC(C)C)c4)cnc3[nH]2)cc1`: the Activity worked out at 63%.

A further assay addresses Tyrosine-protein kinase Fyn (Homo sapiens) (UniProt P06241). The assay is described as follows: Inhibition of human FYN assessed as residual activity at 1 uM relative to control.
Turning to `COc1ccc(-c2nc3cc(-c4csc(C(=O)NCCC(C)C)c4)cnc3[nH]2)cc1`, the Activity was 33%.

For `COc1ccc(-c2nc3cc(-c4csc(C(=O)NCC(C)(C)C)c4)cnc3[nH]2)cc1`, the Activity is 67%.

For `COc1ccc(-c2nc3cc(-c4csc(C(=O)NCC(C)C)c4)cnc3[nH]2)cc1`, the Activity worked out at 34%.

In another assay the target is Insulin receptor-related protein (Homo sapiens) (UniProt P14616). The assay is described as follows: Inhibition of human IRR assessed as residual activity at 1 uM relative to control.
Chain of Insulin receptor-related protein (Homo sapiens) (P14616 27-742 limits assumed): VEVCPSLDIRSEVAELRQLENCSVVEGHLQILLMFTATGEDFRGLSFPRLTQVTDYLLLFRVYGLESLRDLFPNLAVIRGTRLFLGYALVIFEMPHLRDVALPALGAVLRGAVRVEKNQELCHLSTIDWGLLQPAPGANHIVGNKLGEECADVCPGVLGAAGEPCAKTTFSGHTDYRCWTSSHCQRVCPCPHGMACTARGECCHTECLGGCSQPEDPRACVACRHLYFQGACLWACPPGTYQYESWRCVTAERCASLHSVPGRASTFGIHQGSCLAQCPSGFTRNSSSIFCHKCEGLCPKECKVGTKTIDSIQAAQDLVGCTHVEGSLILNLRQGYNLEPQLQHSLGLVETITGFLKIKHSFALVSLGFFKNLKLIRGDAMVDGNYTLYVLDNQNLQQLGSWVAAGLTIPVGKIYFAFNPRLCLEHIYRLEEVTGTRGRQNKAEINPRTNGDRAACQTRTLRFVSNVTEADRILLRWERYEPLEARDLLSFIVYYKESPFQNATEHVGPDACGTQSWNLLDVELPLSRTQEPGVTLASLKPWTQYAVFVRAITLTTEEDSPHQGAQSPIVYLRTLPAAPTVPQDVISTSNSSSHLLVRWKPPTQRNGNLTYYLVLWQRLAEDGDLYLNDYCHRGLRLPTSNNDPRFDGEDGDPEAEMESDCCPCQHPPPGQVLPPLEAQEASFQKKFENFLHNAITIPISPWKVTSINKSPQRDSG
Chain of Insulin receptor-related protein (Homo sapiens) (P14616 747-1297 limits assumed): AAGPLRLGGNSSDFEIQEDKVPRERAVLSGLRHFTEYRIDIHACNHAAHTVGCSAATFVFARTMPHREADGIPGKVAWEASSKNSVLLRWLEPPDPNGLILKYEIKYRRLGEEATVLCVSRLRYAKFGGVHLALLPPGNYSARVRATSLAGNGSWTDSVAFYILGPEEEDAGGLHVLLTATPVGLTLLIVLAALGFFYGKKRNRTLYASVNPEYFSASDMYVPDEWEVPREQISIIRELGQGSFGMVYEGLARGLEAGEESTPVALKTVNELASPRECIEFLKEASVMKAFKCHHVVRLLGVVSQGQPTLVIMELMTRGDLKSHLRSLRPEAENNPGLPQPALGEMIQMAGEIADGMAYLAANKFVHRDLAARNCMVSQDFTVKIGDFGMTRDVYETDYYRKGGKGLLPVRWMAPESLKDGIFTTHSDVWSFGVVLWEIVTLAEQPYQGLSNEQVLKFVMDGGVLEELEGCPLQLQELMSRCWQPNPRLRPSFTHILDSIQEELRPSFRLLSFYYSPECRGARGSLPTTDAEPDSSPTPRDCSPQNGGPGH
As to `COc1ccc(-c2nc3cc(-c4csc(C(=O)NCCC(C)C)c4)cnc3[nH]2)cc1`, the Activity came out at 80%.

For the compound `COc1ccc(-c2nc3cc(-c4csc(C(=O)NCC(C)(C)C)c4)cnc3[nH]2)cc1`, the Activity was 70%.

Turning to `COc1ccc(-c2nc3cc(-c4csc(C(=O)NCC(C)C)c4)cnc3[nH]2)cc1`, the Activity worked out at 92%.

The next assay addresses T1, cGMP-dependent protein kinase 1 (Homo sapiens) (UniProt Q13976).
T1 sequence (whole entry): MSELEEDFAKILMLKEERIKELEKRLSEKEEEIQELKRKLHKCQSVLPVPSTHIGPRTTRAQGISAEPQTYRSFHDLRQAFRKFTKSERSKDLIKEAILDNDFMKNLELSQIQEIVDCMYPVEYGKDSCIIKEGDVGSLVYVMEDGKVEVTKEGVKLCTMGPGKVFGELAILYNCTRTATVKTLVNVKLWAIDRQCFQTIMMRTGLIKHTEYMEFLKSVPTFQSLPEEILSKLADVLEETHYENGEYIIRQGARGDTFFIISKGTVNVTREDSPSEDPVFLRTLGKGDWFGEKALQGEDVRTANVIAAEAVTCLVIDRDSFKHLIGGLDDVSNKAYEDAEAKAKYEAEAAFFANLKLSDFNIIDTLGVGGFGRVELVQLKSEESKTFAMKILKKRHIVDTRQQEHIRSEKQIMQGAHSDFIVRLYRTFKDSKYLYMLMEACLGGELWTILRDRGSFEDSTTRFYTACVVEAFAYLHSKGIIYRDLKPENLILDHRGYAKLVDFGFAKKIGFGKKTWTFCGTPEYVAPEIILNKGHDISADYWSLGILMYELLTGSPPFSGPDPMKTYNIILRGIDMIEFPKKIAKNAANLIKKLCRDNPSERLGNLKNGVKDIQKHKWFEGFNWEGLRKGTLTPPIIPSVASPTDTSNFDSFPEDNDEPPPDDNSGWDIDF
Nature of the assay: Inhibition of human PKG1alpha assessed as residual activity at 1 uM relative to control.
As for `COc1ccc(-c2nc3cc(-c4csc(C(=O)NCCC(C)C)c4)cnc3[nH]2)cc1`, the Activity worked out at 67%.

Turning to `COc1ccc(-c2nc3cc(-c4csc(C(=O)NCC(C)(C)C)c4)cnc3[nH]2)cc1`, the Activity was 68%.

On to `COc1ccc(-c2nc3cc(-c4csc(C(=O)NCC(C)C)c4)cnc3[nH]2)cc1`, for which the Activity was found to be 69%.

Another assay addresses RAC-beta serine/threonine-protein kinase (Homo sapiens) (UniProt P31751). Nature of the assay: Inhibition of human PKBbeta assessed as residual activity at 1 uM relative to control.
With `COc1ccc(-c2nc3cc(-c4csc(C(=O)NCCC(C)C)c4)cnc3[nH]2)cc1`, the Activity came to 93%.

Take `COc1ccc(-c2nc3cc(-c4csc(C(=O)NCC(C)(C)C)c4)cnc3[nH]2)cc1`: the Activity is 90%.

With `COc1ccc(-c2nc3cc(-c4csc(C(=O)NCC(C)C)c4)cnc3[nH]2)cc1`, the Activity was determined as 98%.

The target of another assay is Phosphatidylinositol 4-phosphate 5-kinase type-1 alpha (Homo sapiens) (UniProt Q99755). The assay is described as follows: Inhibition of human PIP5K1alpha assessed as residual activity at 1 uM relative to control.
Turning to `COc1ccc(-c2nc3cc(-c4csc(C(=O)NCCC(C)C)c4)cnc3[nH]2)cc1`, the Activity was determined as 99%.

Regarding `COc1ccc(-c2nc3cc(-c4csc(C(=O)NCC(C)(C)C)c4)cnc3[nH]2)cc1`, the Activity came to 95%.

Regarding `COc1ccc(-c2nc3cc(-c4csc(C(=O)NCC(C)C)c4)cnc3[nH]2)cc1`, the Activity was determined as 99%.

Another assay concerns the target Rho-associated protein kinase 1 (Homo sapiens) (UniProt Q13464). The assay is described as follows: Inhibition of human ROCK-1 assessed as residual activity at 1 uM relative to control.
On to `COc1ccc(-c2nc3cc(-c4csc(C(=O)NCCC(C)C)c4)cnc3[nH]2)cc1`, for which the Activity is 98%.

As for `COc1ccc(-c2nc3cc(-c4csc(C(=O)NCC(C)(C)C)c4)cnc3[nH]2)cc1`, the Activity worked out at 104%.

`COc1ccc(-c2nc3cc(-c4csc(C(=O)NCC(C)C)c4)cnc3[nH]2)cc1`: the Activity was found to be 113%.

A further assay addresses Mast/stem cell growth factor receptor Kit (Homo sapiens) (UniProt P10721). The assay is described as follows: Inhibition of human cKIT assessed as residual activity at 1 uM relative to control.
For `COc1ccc(-c2nc3cc(-c4csc(C(=O)NCCC(C)C)c4)cnc3[nH]2)cc1`, the Activity was found to be 107%.

On to `COc1ccc(-c2nc3cc(-c4csc(C(=O)NCC(C)(C)C)c4)cnc3[nH]2)cc1`, for which the Activity stood at 112%.

In the case of `COc1ccc(-c2nc3cc(-c4csc(C(=O)NCC(C)C)c4)cnc3[nH]2)cc1`, the Activity was 103%.

For another assay, the target named is Serine/threonine-protein kinase PAK 2 (Homo sapiens) (UniProt Q13177). The assay is described as follows: Inhibition of human PAK2 assessed as residual activity at 1 uM relative to control.
Consider `COc1ccc(-c2nc3cc(-c4csc(C(=O)NCCC(C)C)c4)cnc3[nH]2)cc1`, for which the Activity was 94%.

For the compound `COc1ccc(-c2nc3cc(-c4csc(C(=O)NCC(C)(C)C)c4)cnc3[nH]2)cc1`, the Activity was 92%.

On to `COc1ccc(-c2nc3cc(-c4csc(C(=O)NCC(C)C)c4)cnc3[nH]2)cc1`, for which the Activity is 90%.

The target of another assay is T2, Inhibitor of nuclear factor kappa-B kinase subunit beta (Homo sapiens) (UniProt O14920).
T2 sequence (whole entry): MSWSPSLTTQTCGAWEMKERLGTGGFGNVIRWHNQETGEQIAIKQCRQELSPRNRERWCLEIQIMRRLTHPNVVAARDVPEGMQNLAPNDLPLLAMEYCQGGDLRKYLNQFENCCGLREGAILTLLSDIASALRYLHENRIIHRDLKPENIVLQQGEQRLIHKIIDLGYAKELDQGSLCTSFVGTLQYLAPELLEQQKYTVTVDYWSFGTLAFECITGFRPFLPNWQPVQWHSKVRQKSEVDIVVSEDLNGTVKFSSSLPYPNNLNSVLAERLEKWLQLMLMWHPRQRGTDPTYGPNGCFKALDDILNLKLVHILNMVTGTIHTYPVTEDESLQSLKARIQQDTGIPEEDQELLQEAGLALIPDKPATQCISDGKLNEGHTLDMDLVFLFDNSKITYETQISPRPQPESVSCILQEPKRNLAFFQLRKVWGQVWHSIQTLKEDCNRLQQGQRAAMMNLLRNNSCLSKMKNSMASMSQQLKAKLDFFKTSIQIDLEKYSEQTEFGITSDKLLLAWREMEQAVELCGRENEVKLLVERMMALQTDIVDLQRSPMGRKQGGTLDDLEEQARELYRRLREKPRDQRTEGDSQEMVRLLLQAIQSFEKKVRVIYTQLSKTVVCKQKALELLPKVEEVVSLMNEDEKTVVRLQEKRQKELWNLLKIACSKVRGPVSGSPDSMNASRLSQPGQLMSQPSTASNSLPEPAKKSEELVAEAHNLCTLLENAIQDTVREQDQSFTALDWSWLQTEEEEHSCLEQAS
Nature of the assay: Inhibition of human IKKbeta assessed as residual activity at 1 uM relative to control.
For the compound `COc1ccc(-c2nc3cc(-c4csc(C(=O)NCCC(C)C)c4)cnc3[nH]2)cc1`, the Activity stood at 95%.

As for `COc1ccc(-c2nc3cc(-c4csc(C(=O)NCC(C)(C)C)c4)cnc3[nH]2)cc1`, the Activity came to 99%.

For the compound `COc1ccc(-c2nc3cc(-c4csc(C(=O)NCC(C)C)c4)cnc3[nH]2)cc1`, the Activity was found to be 95%.

A further assay deals with Proto-oncogene tyrosine-protein kinase receptor Ret (Homo sapiens), P07949 [V804M]. Nature of the assay: Inhibition of human RET V804M mutant assessed as residual activity at 1 uM relative to control.
Chain of Proto-oncogene tyrosine-protein kinase receptor Ret (Homo sapiens), P07949 [V804M] (P07949 whole entry V804M): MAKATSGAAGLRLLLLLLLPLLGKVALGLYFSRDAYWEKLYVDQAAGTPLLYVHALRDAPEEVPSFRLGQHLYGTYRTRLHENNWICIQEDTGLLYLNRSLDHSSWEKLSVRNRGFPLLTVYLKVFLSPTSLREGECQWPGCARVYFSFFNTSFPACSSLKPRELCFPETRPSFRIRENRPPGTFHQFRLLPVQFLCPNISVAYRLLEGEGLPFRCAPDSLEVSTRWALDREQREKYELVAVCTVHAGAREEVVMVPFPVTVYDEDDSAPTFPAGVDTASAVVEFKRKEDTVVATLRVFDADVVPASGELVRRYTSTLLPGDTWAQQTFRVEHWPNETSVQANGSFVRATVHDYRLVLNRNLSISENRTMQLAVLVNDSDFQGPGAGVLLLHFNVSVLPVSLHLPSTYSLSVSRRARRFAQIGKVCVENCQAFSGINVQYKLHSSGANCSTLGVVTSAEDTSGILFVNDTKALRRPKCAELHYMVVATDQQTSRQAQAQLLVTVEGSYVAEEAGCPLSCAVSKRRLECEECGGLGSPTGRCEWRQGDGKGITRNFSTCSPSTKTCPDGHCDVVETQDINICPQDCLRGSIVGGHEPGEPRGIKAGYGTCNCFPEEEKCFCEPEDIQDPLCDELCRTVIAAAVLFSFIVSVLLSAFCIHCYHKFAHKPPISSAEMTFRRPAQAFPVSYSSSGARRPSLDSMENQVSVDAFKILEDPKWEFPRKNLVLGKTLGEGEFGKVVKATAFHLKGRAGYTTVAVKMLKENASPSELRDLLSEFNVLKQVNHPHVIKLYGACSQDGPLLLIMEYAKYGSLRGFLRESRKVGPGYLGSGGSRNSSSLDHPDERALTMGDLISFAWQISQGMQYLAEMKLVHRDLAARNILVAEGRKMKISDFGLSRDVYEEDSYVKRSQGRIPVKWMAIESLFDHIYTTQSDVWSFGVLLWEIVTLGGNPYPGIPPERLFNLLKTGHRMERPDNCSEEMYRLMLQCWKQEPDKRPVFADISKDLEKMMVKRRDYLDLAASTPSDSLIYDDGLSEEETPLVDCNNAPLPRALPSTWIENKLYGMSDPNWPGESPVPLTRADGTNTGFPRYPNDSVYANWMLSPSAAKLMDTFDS
Turning to `COc1ccc(-c2nc3cc(-c4csc(C(=O)NCCC(C)C)c4)cnc3[nH]2)cc1`, the Activity turned out to be 9%.

As for `COc1ccc(-c2nc3cc(-c4csc(C(=O)NCC(C)(C)C)c4)cnc3[nH]2)cc1`, the Activity was 24%.

Take `COc1ccc(-c2nc3cc(-c4csc(C(=O)NCC(C)C)c4)cnc3[nH]2)cc1`: the Activity came out at 15%.

Another assay deals with Protein-tyrosine kinase 6 (Homo sapiens) (UniProt Q13882). Nature of the assay: Inhibition of human BRK assessed as residual activity at 1 uM relative to control.
Take `COc1ccc(-c2nc3cc(-c4csc(C(=O)NCCC(C)C)c4)cnc3[nH]2)cc1`: the Activity worked out at 112%.

In the case of `COc1ccc(-c2nc3cc(-c4csc(C(=O)NCC(C)(C)C)c4)cnc3[nH]2)cc1`, the Activity was found to be 102%.

As to `COc1ccc(-c2nc3cc(-c4csc(C(=O)NCC(C)C)c4)cnc3[nH]2)cc1`, the Activity was 110%.

The next assay concerns the target Myosin light chain kinase, smooth muscle (Homo sapiens) (UniProt Q15746). The assay is described as follows: Inhibition of human MLCK assessed as residual activity at 1 uM relative to control.
With `COc1ccc(-c2nc3cc(-c4csc(C(=O)NCCC(C)C)c4)cnc3[nH]2)cc1`, the Activity turned out to be 106%.

For the compound `COc1ccc(-c2nc3cc(-c4csc(C(=O)NCC(C)(C)C)c4)cnc3[nH]2)cc1`, the Activity worked out at 95%.

Turning to `COc1ccc(-c2nc3cc(-c4csc(C(=O)NCC(C)C)c4)cnc3[nH]2)cc1`, the Activity is 100%.

Another assay has as its target Calcium/calmodulin-dependent protein kinase type II subunit beta (Homo sapiens) (UniProt Q13554). The assay is described as follows: Inhibition of human CaMK2beta assessed as residual activity at 1 uM relative to control.
For `COc1ccc(-c2nc3cc(-c4csc(C(=O)NCCC(C)C)c4)cnc3[nH]2)cc1`, the Activity is 97%.

`COc1ccc(-c2nc3cc(-c4csc(C(=O)NCC(C)(C)C)c4)cnc3[nH]2)cc1`: the Activity is 98%.

For `COc1ccc(-c2nc3cc(-c4csc(C(=O)NCC(C)C)c4)cnc3[nH]2)cc1`, the Activity was 96%.

In the next assay the target is T3, Mitogen-activated protein kinase kinase kinase 7 (Homo sapiens) (UniProt O43318).
T3 sequence (whole entry): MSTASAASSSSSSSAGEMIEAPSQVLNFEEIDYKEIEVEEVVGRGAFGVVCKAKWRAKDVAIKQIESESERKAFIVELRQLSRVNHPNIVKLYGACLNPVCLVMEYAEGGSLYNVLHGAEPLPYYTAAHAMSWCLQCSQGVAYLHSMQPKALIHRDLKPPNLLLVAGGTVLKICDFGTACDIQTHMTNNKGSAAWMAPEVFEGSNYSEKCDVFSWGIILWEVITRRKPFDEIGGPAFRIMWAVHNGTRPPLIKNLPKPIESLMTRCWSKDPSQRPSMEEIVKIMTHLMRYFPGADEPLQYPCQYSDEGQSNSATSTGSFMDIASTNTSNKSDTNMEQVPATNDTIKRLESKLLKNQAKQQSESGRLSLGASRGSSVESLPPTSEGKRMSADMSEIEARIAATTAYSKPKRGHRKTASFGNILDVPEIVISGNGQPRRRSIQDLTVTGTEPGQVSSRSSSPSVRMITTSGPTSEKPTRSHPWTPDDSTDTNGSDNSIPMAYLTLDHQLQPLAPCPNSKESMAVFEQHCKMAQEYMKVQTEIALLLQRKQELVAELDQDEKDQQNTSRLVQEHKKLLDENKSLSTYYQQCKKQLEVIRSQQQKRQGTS
Nature of the assay: Inhibition of human TAK1 assessed as residual activity at 1 uM relative to control.
Take `COc1ccc(-c2nc3cc(-c4csc(C(=O)NCCC(C)C)c4)cnc3[nH]2)cc1`: the Activity amounted to 85%.

On to `COc1ccc(-c2nc3cc(-c4csc(C(=O)NCC(C)(C)C)c4)cnc3[nH]2)cc1`, for which the Activity is 79%.

In the case of `COc1ccc(-c2nc3cc(-c4csc(C(=O)NCC(C)C)c4)cnc3[nH]2)cc1`, the Activity stood at 85%.

Source of the values: ChEMBL document CHEMBL3124838, “Discovery of 6-aryl-azabenzimidazoles that inhibit the TBK1/IKK-ε kinases” (Bioorg Med Chem Lett, 2014).
